# In patent US7968530B2 (priority 2005, dated 2011):
# Where two headings read alike, the source gives them in different places.
# Experiments:
# Phytophthora infestans [1] = type: in vivo
# Plasmopara viticola [2] = experiment: Preventive fungicidal activity against peronospora of vines, sprayed vine leaves (Example 7); type: in vivo; settings: 7-day preventive, vine cv. Dolcetto, scale 0 (completely infected) to 100 (healthy plant); for Activity 500 ppm: 500 ppm as equivalent phosphorous acid; for Activity 1000 ppm: 1000 ppm as equivalent phosphorous acid
# Experimental: Determination of the Fungicidal Activity Against Peronospora of Vines (Plasmopara viticola).
# Vine leaves (cultivar Dolcetto), grown in vases in a conditioned environment (20±1° C., 70% relative humidity) are treated by spraying both sides of the leaves with compounds 1 and 2, dispersed in a hydroacetone solution at 20% by volume in acetone.
# After remaining 24 hours in a conditioned environment, the plants were sprayed on both sides of the leaves with an aqueous suspension of conidia of Plasmopara viticola (20,000 conidia per cm^3).
# The plants are kept in a humidity saturated environment at 21° C. for the incubation period of the fungus.
# At the end of this period (7 days), the fungicidal activity is evaluated according to an evaluation percentage scale from 0 (completely infected plant) to 100 (healthy plant).
# Phytophthora infestans [3] = settings: 1-day curative, potato Primura, scale 100 healthy to 0 infected
# Plasmopara tabacina = experiment: 1-day curative fungicidal activity of fungicidal mixtures against peronospora of tobacco (Example 11); type: in vivo
# Experimental: Determination of the Fungicidal Activity of Fungicidal Mixtures Against Peronospora of Tobacco (Plasmopara tabacina).
# Leaves of tobacco plants (cultivar Barley), grown in vases in a conditioned environment (20±1° C.), 70% relative humidity) were infected with an aqueous solution of spores of Plasmopara tabacina (200,000 conidia per cm^3).
# (§1) After remaining 24 hours in a conditioned environment, both sides of the leaves were sprayed with the fungicidal mixtures under examination dissolved in a hydroacetone solution at 20% of acetone (vol./vol.).
# After drying, the plants were transferred for the incubation period of the fungus (6 days) to a conditioned environment at 70% relative humidity and 24° C.
# Plasmopara viticola [4] = experiment: 1-day curative fungicidal activity of fungicidal mixtures against peronospora of vines (Example 10); type: in vivo
# Experimental: Leaves of vines (cultivar Dolcetto), grown in vases in a conditioned environment (20±1° C.), 70% relative humidity) were infected with an aqueous suspension of spores of Plasmopara viticola (200,000 conidia per cm^3).
# as §1
# After drying, the plants were transferred for the incubation period of the fungus (6 days) to a conditioned at 70% relative humidity and 24° C.
# [5] = 1575 ppm as equivalent phosphorous acid
# [6] = compound alone at 1575 ppm as equivalent phosphorous acid, 1-day curative, potato, scale 0-100
compound,measurement,setting,value
CN(C)CCCO [3-dimethylamine-1-propanol],Activity (y),Phytophthora infestans [1]; in vivo,25
C[N+](C)(C)CCO.O=C([O-])O [Choline bicarbonate],Activity 500 ppm,Plasmopara viticola [2],75
same,Activity 1000 ppm,Plasmopara viticola [2],84
C[N+](C)(C)CCO.[Cl-] [Choline chloride],Activity,Phytophthora infestans [3]; 2690 ppm (quantity of choline contained in Compound No 2),15 (2690 ppm*)
same,Activity (y),"Plasmopara tabacina; compound alone at 2047 ppm, 1-day curative, tobacco, scale 0-100",10
same,Activity (y),"Phytophthora infestans [1]; compound alone at 2730 ppm, 1-day curative, potato, scale 0-100",20
same,Activity (y),"Plasmopara viticola [4]; compound alone at 2047 ppm, 1-day curative, vine, scale 0-100",20
same,Activity 500 ppm,Plasmopara viticola [2],35
same,Activity 1000 ppm,Plasmopara viticola [2],57
"O=[PH]([O-])[O-].[K+].[K+] [Compound K2HPO3, K2HPO3, reference compound]",Activity,Phytophthora infestans [3]; [5],40 (1575 ppm**)
same,Activity 500 ppm,Plasmopara viticola [2],45
same,Activity 1000 ppm,Plasmopara viticola [2],80
"CN(C)CCO [N,N-dimethylethanolamine]",Activity (y),Plasmopara tabacina; in vivo,5
same,Activity (y),Phytophthora infestans [1]; in vivo,30
same,Activity (y),Plasmopara viticola [4]; in vivo,25
Acid Choline Phosphite [Compound 2],Activity,Phytophthora infestans [3]; [5],65 (1575 ppm**)
same,Activity,"Phytophthora infestans [3]; 1575 ppm as equivalent phosphorous acid, […]",65
same,Activity (y),Phytophthora infestans [1]; [6],65
same,Activity 500 ppm,Plasmopara viticola [2],85
same,Activity 1000 ppm,Plasmopara viticola [2],95
Neutral Choline Phosphite [Compound 1],Activity (y),Phytophthora infestans [1]; [6],65
same,Activity 500 ppm,Plasmopara viticola [2],90
same,Activity 1000 ppm,Plasmopara viticola [2],100
